Source: patent publication US20240075050A1, “Methods and Compositions for Treating Leucine Rich Repeat Kinase 2 (LRRK2)-Associated Disorder or Condition” (University of Connecticut, priority 2022, published 2024)

Experiments:
[1] = test system: LRRK2-G2019S transgenic flies; assay: LRRK2-induced DA neurodegeneration in LRRK2-G2019S transgenic Drosophila; type: in vivo; conditions: 9-week-old flies, fly food with 1 mM AICAr from posteclosion
Excerpt: Administration of AICAr into LRRK2 Drosophila. Ddc-GAL4 and UAS-GFP fly lines were obtained from Bloomington Stock Center. pUAST-attB-LRRK2 WT and G2019S were microinjected into Drosophila embryos (BestGene Inc.)^30. The resulting transgenic flies were crossed with Ddc-GAL4>UAS-GFP, which induces the co-expression of GFP, […] LRRK2 in dopamine and serotonin neurons. To study the effects of AICAr on LRRK2-induced dopaminergic neurodegeneration, flies were fed with regular fly food supplemented with 1 mM AICAr immediately at the posteclosion until 9-week-old.

[2] = test system: LRRK2; assay: LRRK2 levels in mouse primary neurons, microglia, astrocytes, Western blot; type: cell-based; conditions: 1 mM, 48 hours
Description: FIGS. 2A-2T depicts that AICAr, the precursor of ATIC substrate, regulates LRRK2 expression levels and neuronal toxicity. FIGS. 2A and 2B depict the overexpressed LRRK2 levels in HEK 293T cells upon AICAr treatment. HEK293 cells were transfected with MYC-LRRK2 and treated with or without 1 mM AICAr for 48 hours. LRRK2 levels were analyzed by Western blot. FIGS. 2C and 2D depict the LRRK2 expression levels in SH-SY5Y cells upon AICAr treatment. Human neuroblastoma SH-SY5Y cells were treated with or without 1 mM AICAr for 48 hours. LRRK2 expression levels were analyzed by Western blot. FIGS. 2E and 2F depict the overexpressed (3-glucocerebrosidase (GCase) levels upon AICAr treatment. HEK 293T cells were transfected with V5-GCase and treated with or without 1 mM AICAr for 48 hours. GCase levels were analyzed by Western blot. FIGS. 2G-2N depict the LRRK2 expression levels in primary neurons (FIG. 2G and FIG. 2H), microglia (FIG. 2I and FIG. 2J), astrocytes (FIG. 2K and FIG. 2L) and human fibroblasts (FIG. 2M and FIG. 2N) upon AICAr treatment. Mouse primary cortical neurons, microglia, astrocytes or human fibroblasts from a health control were treated with or without 1 mM AICAr for 48 hours. LRRK2 expression levels were analyzed by Western blot. FIGS. 2O and 2P depict the overexpressed LRRK2 WT and pathogenic mutant levels upon AICAr treatment. […] LRRK2 expression levels were analyzed by Western blot. […] One day after injection, striatal tissues near the injection sites were collected and LRRK2 expression levels were analyzed by Western blot. Images were quantified by ImageJ software. […] FIG. 2T depicts the quantification of neuronal viability. Bars indicate the viability (n>100) for each transfection condition expressed as a percent of control neurons (eGFP with pcDNA3.1 empty vector). Data represent the mean±SEM from three independent experiments with n>100 cells quantified in each experiment. *p<0.05, ***p<0.001, ****p<0.0001 by one-way ANOVA followed by a Tukey's post hoc test.

[3] = test system: LRRK2; assay: Overexpressed LRRK2 levels in HEK 293T cells, Western blot; type: cell-based, human
Description: FIGS. 2A-2T depicts that AICAr, the precursor of ATIC substrate, regulates LRRK2 expression levels and neuronal toxicity. FIGS. 2A and 2B depict the overexpressed LRRK2 levels in HEK 293T cells upon AICAr treatment. HEK293 cells were transfected with MYC-LRRK2 and treated with or without 1 mM AICAr for 48 hours. LRRK2 levels were analyzed by Western blot. FIGS. 2C and 2D depict the LRRK2 expression levels in SH-SY5Y cells upon AICAr treatment. Human neuroblastoma SH-SY5Y cells were treated with or without 1 mM AICAr for 48 hours. LRRK2 expression levels were analyzed by Western blot. FIGS. 2E and 2F depict the overexpressed (3-glucocerebrosidase (GCase) levels upon AICAr treatment. HEK 293T cells were transfected with V5-GCase and treated with or without 1 mM AICAr for 48 hours. GCase levels were analyzed by Western blot. FIGS. 2G-2N depict the LRRK2 expression levels in primary neurons (FIG. 2G and FIG. 2H), microglia (FIG. 2I and FIG. 2J), astrocytes (FIG. 2K and FIG. 2L) and human fibroblasts (FIG. 2M and FIG. 2N) upon AICAr treatment. Mouse primary cortical neurons, microglia, astrocytes or human fibroblasts from a health control were treated with or without 1 mM AICAr for 48 hours. LRRK2 expression levels were analyzed by Western blot. FIGS. 2O and 2P depict the overexpressed LRRK2 WT and pathogenic mutant levels upon AICAr treatment. HEK 293T cells were transfected with MYC-LRRK2 WT, R1441C (RC), R1441G (RG), Y1699C (YC), G2019S (GS) or I2020T (IT) and treated with or without 1 mM AICAr for 48 hours. LRRK2 expression levels were analyzed by Western blot. FIGS. 2Q and 2R depict the LRRK2 expression levels in mouse striatum upon AICAr treatment. AICAr (72 μg/day/animal) or saline (used as a control) was injected into mouse striatum via osmotic pumps. One day after injection, striatal tissues near the injection sites were collected and LRRK2 expression levels were analyzed by Western blot. Images were quantified by ImageJ software. Data are mean±SEM from total six mice (three male mice and three female mice). ****p<0.0001 by Student's t tests. […] FIG. 2T depicts the quantification of neuronal viability. Bars indicate the viability (n>100) for each transfection condition expressed as a percent of control neurons (eGFP with pcDNA3.1 empty vector). Data represent the mean±SEM from three independent experiments with n>100 cells quantified in each experiment. *p<0.05, ***p<0.001, ****p<0.0001 by one-way ANOVA followed by a Tukey's post hoc test.
FIGS. 3A-3J depict that AICAr regulates LRRK2 at mRNA level and through a specific region. […] LRRK2 expression levels were analyzed by Western blot. Images were quantified by ImageJ software. […] LRRK2 and GBA mRNA levels were analyzed by real-time PCR. […] LRRK2 mRNA levels were analyzed by real-time PCR. […]

NC(=O)c1ncn([C@@H]2O[C@H](CO)[C@@H](O)[C@H]2O)c1N [AICAr, 5-aminoimidazole-4-carboxamide riboside]
LRRK2-GS induced DA neurodegeneration (DA neuron numbers) [1]: rescued | LRRK2 levels in astrocytes ([2]; mouse primary astrocytes): remained unchanged | LRRK2 levels in neurons ([2]; mouse primary cortical neurons): significantly decrease | LRRK2 levels in microglia ([2]; mouse primary microglia): significantly decrease | native LRRK2 cDNA expression ([3]; HEK 293T, Flag-LRRK2 native cDNA, 1 mM, 48 hours): great suppress | expression of synthesized LRRK2 cDNA with synonymous codons ([3]; HEK 293T, Flag-LRRK2 synthesized cDNA, 1 mM, 48 hours): no obvious effects | overexpressed LRRK2 levels ([3]; HEK293 cells transfected with MYC-LRRK2, 1 mM, 48 hours): decreased | chimeric LRRK2 cDNA expression ([3]; synthesized cDNA with region 2221-3927 bp replaced by native sequence): great suppression
